Laboratory results taken from US20240269170A1, “Treatment of Inflammatory Conditions or Diseases” (Queen Mary University of London, priority 2021, published 2024).

Test system: Arg-1
Assay: Arg-1 expression in bone marrow monocyte-derived macrophages differentiated in vitro, flow cytometry
Type: cell-based, mouse
Description: (B) Mice were administered K/B×N serum on days 0, 2 and 9 then on day 12 they were treated 2×10^6 PKH67-labelled monocytes isolated from arthritic mice and incubated with either vehicle (PBS+0.1% EtOH) or 1 nM MCTR3 for 90 min via i.v injection. After 10 days joints were harvested, cells were liberated that the expression of Arg-1 was evaluated in PKH67^+CD64^+ cells using flow cytometry. Results are from n=10 mice per group. Statistical differences were evaluated using a Mann-Whitney U test. (C) Inflammatory arthritis was induced in C57BL/6 mice and bone marrow-derived monocytes were isolated and treated as in A and Arg-1 expression was evaluated using flow cytometry. Results are mean±SEM and expressed as percentage change from cells incubated with vehicle alone. n=8 per group from two separate experiments. Statistical differences were evaluated using one-sample Wilcoxon signed rank test. (D) Mice were given K/B×N serum (via i.p. injection) on days 0, 2 and 9. […] On day 22, joints were collected and the expression of Arg-1 in PKH67^+ CD64^+ cells was evaluated using flow cytometry. Results are mean±SEM and expressed as percentage change from vehicle group. n=5 mice per group. Statistics differences were evaluated Mann-Whitney U test. […]

Row | Compound | ability of MCTR3 to upregulate Arg-1 in vitro (monocytes incubated with 10 μM RG108 for 45 min before 1 nM MCTR3) | Arg-1 expression in MDM differentiated in vitro (1 nM MCTR3 for 24 hours on monocytes)
1 | O=C(O)C(Cc1c[nH]c2ccccc12)N1C(=O)c2ccccc2C1=O (centres unmarked) [RG108] | reversed | 
2 | CC/C=C\C/C=C\C[C@H](O)[C@@H](/C=C/C=C/C=C\C/C=C\CCC(=O)O)SC[C@H](N)C(=O)O [MCTR3, 13R-cysteinyl, 14S-hydroxy-4Z, 7Z, 9E, 11E, 13R, 14S, 16Z, 19Z-docosahexaenoic acid] |  | upregulate
